We go through 1 molecule from patent publication US20170152569A1, “POLYMORPHISM IN THE BCL2 GENE DETERMINES RESPONSE TO CHEMOTHERAPY” (HIDENSEQ, priority 2014, published 2017).

The test system of assay [1] is HeyA8 cells. The assay is described as follows: Bcl2 gradient assay: cell sensitivity to paclitaxel with increasing wt-BCL2-GFP doses. The format is cell-based. Conditions: HeyA8 cells transfected with increased concentrations of BCL2 mRNA (5 doses of wt-BCL2-GFP); viability by FACS 24 hours after paclitaxel. Here is the method:
(§1) Propidium iodide (PI) was added to the cell suspension at a concentration of 1 μg/ml. Sorting and analyses were carried out in a Gallios flow cytometer cell sorter collecting 10,000 events. Dead cells were excluded by gating on forward and side scatter and by eliminating PI-positive events.
(§2) To examine the effect of rs1801018 variant on cells sensitivity to paclitaxel, GFP-empty vector control or one of three GFP-BCL2 variants (wild-type, rs1801018 variant or random) were over-expressed in cells, which then were tested with paclitaxel. Cells were incubated with increasing concentrations of paclitaxel as indicated in methods and in FIG. 3. […] To study the relationship between resistance to paclitaxel and BCL2 gene copy numbers, a Bcl2 gradient assay was performed. The assay is designed to examine cell sensitivity to paclitaxel in the presence of increasing levels of BCL2 copies. HeyA8 cells were transfected with 5 different doses of wt-BCL2-GFP. 24 hours post transfection cells were treated with paclitaxel, and 24 hours post incubation cells viability was measured by FACS.
On the technique in general: A flow cytometer gives signals particle by particle.

In assay [2] the test system is HeyA8 cells. The assay is described as follows: Sensitivity of transfected HeyA8 cells to paclitaxel (cell viability, PI/FACS). The format is cell-based. Here is the method:
HeyA8 ovarian cell lines were grown at 37° C. with 5% CO2 in MEM-EAGLE medium supplement with 2 mM L-glutamine, 1.5 g/L sodium bicarbonate, 4.5 g/L glucose, 10 mM HEPES, 1.0 mM sodium pyruvate and 10% fetal bovine serum (FBS).
as §1
Cells expressing GFP-empty vector or one of three types of GFP-BCL2 variants were measured for their sensitivity to paclitaxel. Following 24 hours of transfection with one of the indicated plasmids, cells were introduced to 100 or 200 nM of paclitaxel for 24 hours incubation.
as §2

The test system of assay [3] is Uterine Corpus Endometrial carcinoma (UCEC). Conditions: of 83 UCEC patients, paclitaxel as first line; cited from earlier work.
In a further assay the test system is Ovarian Cancer (OV). Conditions: paclitaxel as first line; cited from earlier work.

Regarding `CC(=O)O[C@H]1C(=O)[C@@]2(C)[C@H]([C@H](OC(=O)c3ccccc3)[C@]3(O)C[C@H](OC(=O)[C@H](O)[C@@H](NC(=O)c4ccccc4)c4ccccc4)C(C)=C1C3(C)C)[C@]1(OC(C)=O)CO[C@@H]1C[C@@H]2O` [paclitaxel, (2α,4α,5β,7β,10β,13α)-4,10-Bis(acetyloxy)-13-{[(2R,3S)-3-(benzoylamino)-2-hydroxy-3-phenylpropanoyl]oxy}-1,7-dihydroxy-9-oxo-5,20-epoxytax-11-en-2-yl benzoate], in the assay with HeyA8 cells [1], the “relative cell death in response to paclitaxel” value was “decrease in relative cell death”. For the same molecule, the sensitivity to paclitaxel result in the assay with HeyA8 cells [2] (HeyA8 cells harboring GFP-empty vector, 100 or 200 nM paclitaxel, 24 hours) is on record as “high sensitivity”. The “cell viability in response to paclitaxel” value with HeyA8 cells [2] (HeyA8 cells transfected with rs1801018 variant (BCL2-Mut), p-value <0.05) is “significantly improved”. Besides, the “cell death / cell viability in response to paclitaxel” value in the assay with HeyA8 cells [2] (HeyA8 cells transfected with wild-type or random BCL2, 100 or 200 nM paclitaxel, 24 hours) was “reduced cell death”. Also, in assay [3], the “patients who require multiple lines” value is 20 patients and the “patients who responded to the first line of treatment” value is recorded as 63 patients. In the assay with Ovarian Cancer (OV), the “patients who required additional lines of diverse chemotherapies” value is 226 patients and the “patients who responded well to the first line of treatment” value is given as 144 patients.
